According to patent US10441608B2, “Continuous methods for treating liquids and manufacturing certain constituents (e.g., nanoparticles) in liquids, apparatuses and nanoparticles and nanoparticle/liquid solution(s) resulting therefrom” (Clene Nanomedicine, Inc., priority 2009, dated 2019):
Several values for one entry are separate records, joined by “and”; a condition that tells them apart may be missing. Equal entries are not always repeated. Where two headings read alike, the source gives them in different places.

How the values were obtained:
[1] = test system: Gram-Positive and Gram Negative bacteria; type: cell-based
[2] = test system: Staphylococcus aureus ATCC-29213; test: Broth microdilution MIC/MID 50 against Staphylococcus aureus; type: cell-based
Text: The clinical and laboratory standards institute Broth Microdilution Methodology was employed, however, the growth medium used was an “RPMI” medium. Additionally, the methods for dilution and antimicrobial susceptibility tests for bacteria that grow aerobically were also followed with the noted exception of testing with alternative media (CLSI document […], CLSI, Wayne, Pa.). […] Under the column, “Isolate” identification beginning with either “GP” or “GN” occur. The “GP” corresponds to Gram-Positive bacteria and the “GN” corresponds to “Gram Negative” bacteria. Each of the organisms are specifically listed after the isolate identification.

C[C@H]1COc2c(N3CCN(C)CC3)c(F)cc3c(=O)c(C(=O)O)cn1c23 [Levofloxacin]
0.02 µg/mL: MIC/MID 50 ([1]; Citrobacter freundii - antibiotic-susceptible clinical isolate) | MIC/MID 50 ([1]; Escherichia coli ATCC25922 - antibiotic-susceptible type strain)
1 µg/mL: MID/MIC (amount of antibiotic) ([1]; GN13 Stenotrophomonas maltophila, antibiotic-resistant clinical isolate) | MID/MIC (amount of antibiotic) ([1]; GN22 Morganella morganii, multi-drug resistant clinical isolate) | MID/MIC (amount of antibiotic) ([1]; GP19 Enterococcus gallinarum, vancomycin-resistant (VanC) clinical isolate) | MID/MIC (amount of antibiotic) ([1]; GP20 Streptococcus pneumoniae ATCC 49619, antibiotic-susceptible control strain) | MID/MIC (amount of antibiotic) ([1]; GP37 Streptococcus agalactiae, antibiotic-susceptible clinical isolate) | MID/MIC (amount of antibiotic) ([1]; GP38 Streptococcus agalactiae, macrolide-resistant clinical isolate) | MID/MIC (amount of antibiotic) ([1]; GP43 Streptococcus mitis, antibiotic-susceptible clinical isolate) | MID/MIC (amount of antibiotic) ([1]; GP46 Streptococcus constellatus, macrolide-resistant clinical isolate) | MID/MIC (amount of antibiotic) ([1]; GP47 Streptococcus oralis, antibiotic-susceptible clinical isolate) | MID/MIC (amount of antibiotic) ([1]; GP48 Streptococcus oralis, macrolide-resistant clinical isolate) | MID/MIC (amount of antibiotic) ([1]; GP49 Streptococcus bovis, antibiotic-susceptible clinical isolate) | MID/MIC (amount of antibiotic) ([1]; GP52 Streptococcus sanguis, macrolide-resistant clinical isolate)
0.12 µg/mL: MIC/MID 50 ([1]; Enterobacter sp - antibiotic-susceptible clinical isolate) | MID/MIC (amount of antibiotic) ([1]; GP02 Staphylococcus aureus ATCC 25923, antibiotic-susceptible control strain) | MID/MIC (amount of antibiotic) ([1]; GP04 Staphylococcus aureus, methicillin-resistant clinical isolate) | MID/MIC (amount of antibiotic) ([1]; GP07 Staphylococcus epidermidis, antibiotic susceptible clinical isolate) | MID/MIC (amount of antibiotic) ([1]; GP34 EMRSA1 Staphylococcus aureus (MRSA), SSCmec type 3) | MID/MIC (amount of antibiotic) ([1]; GP36 HT2001254 Staphylococcus aureus (MRSA), PVL positive) | MIC/MID 50 ([1]; Staphylococcus aureus ATCC 25923 - antibiotic-susceptible control strain) | MIC/MID 50 ([1]; Staphylococcus epidermidis antibiotic susceptible clinical isolate) | MID/MIC (amount of antibiotic) ([2]; GP01 Staphylococcus aureus ATCC 29213, antibiotic-susceptible control strain) | MIC/MID 50 ([2]; Staphylococcus aureus ATCC 29213 - antibiotic-susceptible control strain)
0.015 µg/mL: MID/MIC (amount of antibiotic) ([1]; GN01 Escherichia coli ATCC25922, antibiotic-susceptible type strain) | MID/MIC (amount of antibiotic) ([1]; GN02 Escherichia coli ATCC35218, β-lactamase positive type strain) | MID/MIC (amount of antibiotic) ([1]; GN33 Bacteroides fragilis, antibiotic-susceptible clinical isolate, supplemented with 2% serum and 1 μg/mL Vit K) | MID/MIC (amount of antibiotic) ([1]; GP53 Clostridium perfringens, antibiotic-susceptible clinical isolate, supplemented with 2% serum and 1 μg/mL Vit K)
4.00 µg/mL: MIC/MID 50 ([1]; Enterococcus faecalis vancomycin-susceptible clinical isolate) | MIC/MID 50 ([1]; Enterococcus faecium vancomycin-resistant (VanB) clinical isolate) | MIC/MID 50 ([1]; Staphylococcus aureus - multi-drug-resistant clinical isolate) | MIC/MID 50 ([1]; Staphylococcus aureus - teicoplanin-intermediate clinical isolate)
2.00 µg/mL: MIC/MID 50 ([1]; Enterococcus faecalis - ATCC 29212 antibiotic-susceptible control strain) | MIC/MID 50 ([1]; Enterococcus gallinarum vancomycin-resistant (VanC) clinical isolate) | MIC/MID 50 ([1]; Proteus mirabilis - multi-drug resistant clinical isolate)
0.50 µg/mL: MIC/MID 50 ([1]; Listeria monocytogenes - antibiotic-susceptible clinical isolate) | MIC/MID 50 ([1]; Staphylococcus haemolyticus - antibiotic susceptible clinical isolate) | MIC/MID 50 ([1]; Staphylococcus saprophyticus - antibiotic susceptible clinical isolate) | MIC/MID 50 ([1]; Streptococcus pneumoniae - penicillin-intermediate clinical isolate) | MIC/MID 50 ([1]; Streptococcus pneumoniae - penicillin-resistant clinical isolate) | MIC/MID 50 ([1]; Streptococcus pyogenes - Macrolide (MLS) resistant clinical isolate) | MIC/MID 50 ([1]; Streptococcus sanguis - antibiotic-susceptible clinical isolate)
8.00 µg/mL: MIC/MID 50 ([1]; Citrobacter freundii - resistant clinical isolate)
0.06 µg/mL: MIC/MID 50 ([1]; Enterobacter sp - multi-drug resistant clinical isolate) | MID/MIC (amount of antibiotic) ([1]; GN15 Proteus mirabilis, antibiotic-susceptible clinical isolate) | MID/MIC (amount of antibiotic) ([1]; GN18 Salmonella sp, multi-drug resistant clinical isolate) | MID/MIC (amount of antibiotic) ([1]; GN23 Providencia stuartii, antibiotic-susceptible clinical isolate) | MID/MIC (amount of antibiotic) ([1]; GN28 Haemophilus influenzae, β-lactamase negative ampicillin-resistant clinical isolate) | MID/MIC (amount of antibiotic) ([1]; GN29 Moraxella catarrhalis, β-lactamase positive clinical isolate) | MID/MIC (amount of antibiotic) ([1]; GP31 MU50 Staphylococcus aureus (MRSA), VISA type strain) | MID/MIC (amount of antibiotic) ([1]; GP35 EMRSA15 Staphylococcus aureus (MRSA), SSCmec type 4) | MIC/MID 50 ([1]; Moraxella catarrhalis β-lactamase positive clinical isolate (first of two lines so named)) | MIC/MID 50 ([1]; Moraxella catarrhalis β-lactamase positive clinical isolate (second of two lines so named)) | MIC/MID 50 ([1]; Proteus mirabilis - antibiotic-susceptible clinical isolate)
0.06 µg/mL and 0.12 µg/mL: MID/MIC (amount of antibiotic) ([1]; GN06 Enterobacter sp, antibiotic-susceptible clinical isolate)
0.03 µg/mL: MID/MIC (amount of antibiotic) ([1]; GN17 Salmonella sp, antibiotic-susceptible clinical isolate) | MID/MIC (amount of antibiotic) ([1]; GN19 Shigella sp, antibiotic-susceptible clinical isolate) | MID/MIC (amount of antibiotic) ([1]; GN20 Shigella sp, multi-drug resistant clinical isolate)
8 µg/mL: MID/MIC (amount of antibiotic) ([1]; GN24 Providencia stuartii, multi-drug resistant clinical isolate) | MID/MIC (amount of antibiotic) ([1]; GN32 Acinetobacter baumanii, multi-drug resistant clinical isolate) | MID/MIC (amount of antibiotic) ([1]; GP30 Listeria monocytogenes, antibiotic-susceptible clinical isolate) | MID/MIC (amount of antibiotic) ([1]; P8119035 Citrobacter freundii, resistant clinical isolate)
1.00 µg/mL: MIC/MID 50 ([1]; Morganella morganii - multi-drug resistant clinical isolate) | MIC/MID 50 ([1]; Stenotrophomonas maltophila - antibiotic-resistant clinical isolate) | MIC/MID 50 ([1]; Streptococcus agalactiae - antibiotic-susceptible clinical isolate) | MIC/MID 50 ([1]; Streptococcus agalactiae - macrolide-resistant clinical isolate) | MIC/MID 50 ([1]; Streptococcus bovis - antibiotic-susceptible clinical isolate) | MIC/MID 50 ([1]; Streptococcus bovis - macrolide-resistant clinical isolate) | MIC/MID 50 ([1]; Streptococcus mitis - macrolide-resistant clinical isolate) | MIC/MID 50 ([1]; Streptococcus oralis - antibiotic-susceptible clinical isolate) | MIC/MID 50 ([1]; Streptococcus oralis - macrolide-resistant clinical isolate) | MIC/MID 50 ([1]; Streptococcus pneumoniae - ATCC 49619 antibiotic-susceptible control strain) | MIC/MID 50 ([1]; Streptococcus pneumoniae - multi-drug resistant clinical isolate) | MIC/MID 50 ([1]; Streptococcus pneumoniae - pencillin-susceptible clinical isolate) | MIC/MID 50 ([1]; Streptococcus sanguis - macrolide-resistant clinical isolate)
0.5 µg/mL: MID/MIC (amount of antibiotic) ([1]; GP09 Staphylococcus haemolyticus, antibiotic susceptible clinical isolate) | MID/MIC (amount of antibiotic) ([1]; GP10 Staphylococcus saprophyticus, antibiotic susceptible clinical isolate) | MID/MIC (amount of antibiotic) ([1]; GP21 Streptococcus pneumoniae, pencillin-susceptible clinical isolate) | MID/MIC (amount of antibiotic) ([1]; GP22 Streptococcus pneumoniae, penicillin-intermediate clinical isolate) | MID/MIC (amount of antibiotic) ([1]; GP25 Streptococcus pyogenes, antibiotic-susceptible clinical isolate) | MID/MIC (amount of antibiotic) ([1]; GP29 Corynebacterium jeikeium, multi-drug resistant clinical isolate) | MID/MIC (amount of antibiotic) ([1]; GP39 Group C Streptococcus, antibiotic-susceptible clinical isolate) | MID/MIC (amount of antibiotic) ([1]; GP55 Group C Streptococcus, antibiotic-resistant clinical isolate)
0.25 µg/mL: MID/MIC (amount of antibiotic) ([1]; GN12 Stenotrophomonas maltophilia, antibiotic-susceptible clinical isolate) | MID/MIC (amount of antibiotic) ([1]; GP08 Staphylococcus epidermidis, methicillin-resistant clinical isolate) | MID/MIC (amount of antibiotic) ([1]; GP41 Group G Streptococcus, antibiotic-susceptible clinical isolate) | MID/MIC (amount of antibiotic) ([1]; GP42 Group G Streptococcus, macrolide-resistant clinical isolate) | MIC/MID 50 ([1]; Staphylococcus aureus ATCC 43300 - methicillin-resistant control strain) | MIC/MID 50 ([1]; Staphylococcus epidermidis methicillin-resistant clinical isolate) | MIC/MID 50 ([1]; Stenotrophomonas maltophilia - antibiotic-susceptible clinical isolate)
2 µg/mL: MID/MIC (amount of antibiotic) ([1]; GN10 Pseudomonas aeruginosa ATCC27853, antibiotic-susceptible type strain) | MID/MIC (amount of antibiotic) ([1]; GN11 Pseudomonas aeruginosa, multi-drug resistant clinical isolate) | MID/MIC (amount of antibiotic) ([1]; GN16 Proteus mirabilis, multi-drug resistant clinical isolate) | MID/MIC (amount of antibiotic) ([1]; GP11 Enterococcus faecalis ATCC 29212, antibiotic-susceptible control strain) | MID/MIC (amount of antibiotic) ([1]; GP18 Enterococcus faecium, vancomycin-resistant (VanB) clinical isolate)
>8 µg/mL: MID/MIC (amount of antibiotic) ([1]; GP15 Enterococcus faecalis, high-level gentamicin-resistant clinical isolate) | MID/MIC (amount of antibiotic) ([1]; GP16 Enterococcus faecium, vancomycin-susceptible clinical isolate) | MID/MIC (amount of antibiotic) ([1]; GP33 EMRSA16 Staphylococcus aureus (MRSA), SSCmec type 2)
1 µg/mL and 0.5 µg/mL: MID/MIC (amount of antibiotic) ([1]; GP51 Streptococcus sanguis, antibiotic-susceptible clinical isolate)
0.5 µg/mL and 1 µg/mL: MID/MIC (amount of antibiotic) ([1]; GP23 Streptococcus pneumoniae, penicillin-resistant clinical isolate) | MID/MIC (amount of antibiotic) ([1]; GP50 Streptococcus bovis, macrolide-resistant clinical isolate)
4 µg/mL: MID/MIC (amount of antibiotic) ([1]; GN14 Burkholderia cepacia, antibiotic-susceptible clinical isolate) | MID/MIC (amount of antibiotic) ([1]; GP05 Staphylococcus aureus, multi-drug-resistant clinical isolate) | MID/MIC (amount of antibiotic) ([1]; GP06 Staphylococcus aureus, teicoplanin-intermediate clinical isolate) | MID/MIC (amount of antibiotic) ([1]; GP12 Enterococcus faecalis, vancomycin-susceptible clinical isolate) | MID/MIC (amount of antibiotic) ([1]; GP17 Enterococcus faecium, vancomycin-resistant (VanA) clinical isolate)
